For series [1], the target named is T1, c-myc (Homo sapiens, UniProt P01106).
T1 construct: endogenous in cells; host or cells: MM-1 cells
The experiment in a line: c-myc protein immunoblot in MM-1 cells. Type of series: cell-based. Here is the method: Top: MM-1 cells were incubated with 5 μM Degrasyn for the interval noted before cell lysates were prepared and subjected to immunoblotting for c-myc and actin as a protein loading control.
Middle: MM-1 cells were treated with the indicated concentration of Degrasyn for 1 h before lysates were immunoblotted for c-myc and actin.
Bottom: MM-1 cells were treated as indicated before extraction of total RNA (TRIzol). RNA was resolved by agarose electrophoresis, transferred to a membrane and hybridized with a c-myc probe to determine the level of c-myc RNA in each sample. The ethidium bromide stained gel was photographed and 28S RNA content was detected as a measure of RNA content in each lane.
MM-1 cells were pretreated with protease/proteosome inhibitors (LLnL; LLnM; E-64d; MG132; PS341; Chloroquine; Ammonium Chloride; Cycloheximide) for 2 h before the addition of 5 μM Degrasyn or vehicle alone (DMSO as indicated) for an additional 2 h. Cell lysates were prepared and equal protein aliquots were subjected to immunoblotting for c-myc, Max (a c-myc binding partner) or actin as a protein loading control.
Pictured: MM-1 cells were treated with biotinylated Degrasyn (Bio-Deg) or Degrasyn (at the indicated concentration) for 1 h before analyzing effects on c-myc as described in FIG. 15.
(§1) Western Blot analysis. Cells were harvested, washed twice in cold 1×PBS and lysed in modified RIPA lysis buffer (150 mM NaCl, 1% NP-40, 0.5% Na-deoxycholate [DOC], 0.1% Na-dodecyl sulfate [SDS], 50 mM Tris-HCl (pH 7.5), 1 mM EDTA, 1 mM NaF, 2 mM Na-vanadate, with protease inhibitors (1 mM PMSF, 1 mM benzamidine, 10 μg/ml aprotinin, 10 μg/ml leupeptin) on ice for 30 min. The lysed cells were centrifuged at 13,000 rpm for 30 min and the supernatant collected. The protein concentration of the cell lysate was determined by the Bradford Protein Assay. Fifty to 60 μg of protein were resolved in a 10% SDS-PAGE, and transferred to a PVDF membrane. Western blotting was performed using specific primary antibodies Peroxidase-conjugated affiniPure anti-Mouse Anti-Rabbit secondary antibodies (Jackson Immunoresearch Laboratories, West Grove, Pa.). The proteins were visualized with ECL Plus reagents (Amersham Biosciences).
A general note: In western blotting, separated proteins are transferred to a membrane and probed.

Series [2] concerns A375 melanoma tumors. Nature of the series: A375 melanoma tumors in nude mice. Type of series: in vivo, Swiss nude mice. The protocol:
Ten Swiss nude mice (6-7 weeks of age) were injected subcutaneously (sc) with […] A375 melanoma cells on Day 0. When tumor nodules were palpable (Day 8), animals were divided into 2 groups. One group (Control) received 0.1 ml DMSO/PEG (1:1) intraperitoneally (ip) every other day […] for a total of 14 injections. The second group received 40 mg/kg Degrasyn ip beginning on Day 8 and repeated every other day for a total of 14 injections. Body weight and tumor volumes (by calipers) were measured every other day, the latter plotted vs. time. […] All animals were euthanized when tumor volumes (in the control group) achieved the maximal allowable burden (1.5 cm^3). The average +/−S.E.M. tumor volume from 5 animals per group is shown.
Anti-tumor studies. Swiss Nu/Nu mice were obtained from the breeding facility in the Department of Experimental Radiotherapy at M.D. Anderson Cancer Center. On Day 0, 200 μl of an A375 cell suspension (5×10^6 cells/ml) were injected (s.c.) into female Swiss nude mice 6-7 weeks of age. At the interval noted, compounds were injected (i.p. or oral gavage) into tumor bearing mice in a 0.1 ml suspension of DMSO/PEG300 (50/50). Degrasyn (40 mg/kg) was administrated on an every other day schedule, for 5 or more injections. […] Tumor volumes were measured every other day using calipers (Cel Associates, Houston, Tex.).

Series [3] addresses T2, BCR-ABL (Homo sapiens, UniProt P00519).
T2 construct: The BCR-ABL expressing CML cell line (K562); endogenous in cells; host or cells: K562; the other entry of the earlier key: BCR (P11274, Breakpoint cluster region protein)
The experiment in a line: BCR-ABL protein level and distribution in K562 cells. Type of series: cell-based. Here is the method:
Top: The BCR-ABL expressing CML cell line (K562) was incubated with 5 μM Degrasyn for the interval noted before cells were lysed and protein extracts were analyzed for BCR-ABL protein (using anti-Abl) levels by immunoblotting. The blot was stripped and reprobed for actin as a protein loading control.
Bottom: RNA from cells treated as described above was isolated (TRIzol Reagent) and used as a template to generate cDNA. This material was then used to prime a real-time PCR reaction for bcr-abl and ubiquitin (Ub) transcripts. The values are reported in terms of the ratio of bcr-abl to Ub.
K562 cells were treated with Degrasyn (2 h, 5 μM) before cells were lysates were prepared and analyzed for BCR-ABL, c-Abl and BCR protein levels. Actin was probed on the stripped blot to control for protein loading.
K562 cells were treated with nothing (Control), vehicle (DMSO; 0.1%), 5 μM Degrasyn or 5 μM geldanamycin for the interval indicated. Cell lysates were prepared and BCR-ABL, HSP70 and Actin were subjected to immunoblotting.
K562 cells were treated with […] Degrasyn for 1 to 2 h before equal protein cell extracts were immunoblotted for BCR-ABL, c-Abl, BCR, HSP90, HSP70 and actin.
K562 cells were treated with Degrasyn (5 μM) for the interval indicated before cell lysates were prepared (Soluble Fraction; prepared in buffer containing 1% NP-40, 0.5% Na-deoxycholate, 0.1% Na-dodecyl sulfate). […]
as §1, with “Western blotting was performed using specific primary antibodies Peroxidase-conjugated affiniPure anti-Mouse Anti-Rabbit secondary antibodies (Jackson Immunoresearch Laboratories, West Grove, Pa.). The proteins were visualized with ECL Plus reagents (Amersham Biosciences).” left out
Real-Time Quantitative TR-PCR analysis of bcr/abl mRNA. […]

T1 sequence (P01106 16-454 limits assumed): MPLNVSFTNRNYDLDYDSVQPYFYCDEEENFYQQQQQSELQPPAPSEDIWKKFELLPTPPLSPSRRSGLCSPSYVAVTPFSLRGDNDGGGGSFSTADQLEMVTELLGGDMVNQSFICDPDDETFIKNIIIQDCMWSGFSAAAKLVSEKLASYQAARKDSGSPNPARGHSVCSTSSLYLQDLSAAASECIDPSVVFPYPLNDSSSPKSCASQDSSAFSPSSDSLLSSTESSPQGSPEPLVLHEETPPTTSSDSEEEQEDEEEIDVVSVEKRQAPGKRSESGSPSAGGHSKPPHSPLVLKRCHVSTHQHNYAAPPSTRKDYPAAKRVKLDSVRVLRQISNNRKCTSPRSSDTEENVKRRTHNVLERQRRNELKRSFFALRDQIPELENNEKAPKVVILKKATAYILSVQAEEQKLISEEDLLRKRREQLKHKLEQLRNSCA
T2 sequence (P00519 with tags, fused parts or gaps): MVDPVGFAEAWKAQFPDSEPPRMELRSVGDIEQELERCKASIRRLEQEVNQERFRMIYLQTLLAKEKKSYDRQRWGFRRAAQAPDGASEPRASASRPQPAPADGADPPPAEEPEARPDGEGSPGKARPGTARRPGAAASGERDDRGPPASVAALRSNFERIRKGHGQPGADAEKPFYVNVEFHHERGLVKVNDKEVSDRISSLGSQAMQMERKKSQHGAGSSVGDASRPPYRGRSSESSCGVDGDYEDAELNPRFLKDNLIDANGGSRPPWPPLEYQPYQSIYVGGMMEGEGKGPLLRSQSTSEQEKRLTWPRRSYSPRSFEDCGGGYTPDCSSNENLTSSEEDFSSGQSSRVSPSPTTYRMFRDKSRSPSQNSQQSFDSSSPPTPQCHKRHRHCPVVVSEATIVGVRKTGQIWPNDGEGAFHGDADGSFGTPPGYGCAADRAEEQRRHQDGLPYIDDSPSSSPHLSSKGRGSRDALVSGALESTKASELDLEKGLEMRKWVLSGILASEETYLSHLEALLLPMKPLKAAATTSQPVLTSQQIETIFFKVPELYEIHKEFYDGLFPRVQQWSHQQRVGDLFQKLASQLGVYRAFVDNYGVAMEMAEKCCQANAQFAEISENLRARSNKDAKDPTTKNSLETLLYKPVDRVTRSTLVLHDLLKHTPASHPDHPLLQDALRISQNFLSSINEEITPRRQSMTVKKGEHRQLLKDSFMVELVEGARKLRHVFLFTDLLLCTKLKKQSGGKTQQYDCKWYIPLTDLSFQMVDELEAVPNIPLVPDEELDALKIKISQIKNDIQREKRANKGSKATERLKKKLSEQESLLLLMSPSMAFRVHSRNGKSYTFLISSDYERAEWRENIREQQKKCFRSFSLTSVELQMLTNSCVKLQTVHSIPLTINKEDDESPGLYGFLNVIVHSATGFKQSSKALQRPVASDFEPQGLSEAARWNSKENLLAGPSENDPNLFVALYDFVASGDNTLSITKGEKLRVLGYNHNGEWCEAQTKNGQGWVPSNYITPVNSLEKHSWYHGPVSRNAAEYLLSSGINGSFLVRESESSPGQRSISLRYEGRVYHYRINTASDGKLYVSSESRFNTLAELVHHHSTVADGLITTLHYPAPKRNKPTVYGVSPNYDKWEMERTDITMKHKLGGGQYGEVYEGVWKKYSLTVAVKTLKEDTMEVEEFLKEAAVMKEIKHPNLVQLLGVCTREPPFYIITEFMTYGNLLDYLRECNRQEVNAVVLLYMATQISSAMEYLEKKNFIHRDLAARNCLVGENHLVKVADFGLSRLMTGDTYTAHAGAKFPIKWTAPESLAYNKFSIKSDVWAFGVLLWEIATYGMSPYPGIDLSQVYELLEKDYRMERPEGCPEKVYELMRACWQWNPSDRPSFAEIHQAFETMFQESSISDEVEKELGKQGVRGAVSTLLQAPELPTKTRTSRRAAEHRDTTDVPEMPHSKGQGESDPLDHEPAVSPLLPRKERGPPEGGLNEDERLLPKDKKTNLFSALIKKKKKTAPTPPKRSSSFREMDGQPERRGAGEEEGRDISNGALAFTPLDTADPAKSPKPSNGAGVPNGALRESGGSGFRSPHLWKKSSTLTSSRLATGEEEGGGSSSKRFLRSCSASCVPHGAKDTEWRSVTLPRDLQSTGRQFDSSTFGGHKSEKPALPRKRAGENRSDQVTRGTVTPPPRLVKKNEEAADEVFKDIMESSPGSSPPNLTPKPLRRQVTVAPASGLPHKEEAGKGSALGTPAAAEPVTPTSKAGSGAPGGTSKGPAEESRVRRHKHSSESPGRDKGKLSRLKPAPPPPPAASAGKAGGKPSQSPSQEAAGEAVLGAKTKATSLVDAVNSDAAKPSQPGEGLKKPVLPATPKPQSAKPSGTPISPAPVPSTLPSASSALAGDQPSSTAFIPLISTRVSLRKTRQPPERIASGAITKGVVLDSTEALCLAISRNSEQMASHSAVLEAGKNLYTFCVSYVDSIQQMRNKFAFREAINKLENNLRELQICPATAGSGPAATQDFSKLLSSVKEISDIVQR

For `CCC[C@H](NC(=O)/C(C#N)=C/c1cccc(Br)n1)c1ccccc1` [Degrasyn], the “c-myc protein content and c-myc RNA” value in series [1] is recorded as “reduces c-myc protein content without effecting c-myc gene expression”. Moreover, the “c-myc protein, time course” value in series [1] (5 μM) is “caused a rapid reduction of c-myc protein”. The “c-myc protein, concentration dependence” value in series [1] (1 h) was “caused a concentration dependent reduction in c-myc protein levels”. Also, in series [1] (FIG. 21, 1 h), the c-myc protein levels entry is recorded as “reduced c-myc protein levels”. In addition, the Animal weight entry in series [2] (40 mg/kg ip every other day) is “did not affect animal weight”. The “Growth of A375 tumors (tumor volume)” value in series [2] (40 mg/kg ip every other day from Day 8, 14 injections) was “suppresses the growth of A375 tumors in vivo”. For the same molecule, in series [3] (5 μM), the “Cytoplasmic staining of BCR-ABL (microscopy)” value was “reduced cytoplasmic staining of BCR-ABL”. Further, in series [3] (5 µM, 1 to 2 h), the “BCR-ABL, c-Abl, BCR, HSP90, HSP70 levels” value is “down-regulated”. Moreover, the “BCR-ABL, c-Abl and BCR protein levels” value in series [3] (2 h, 5 μM) is “reduced BCR-ABL protein levels but had minimal effects on c-Abl and BCR”.

These data come from patent US20100292229A1, “TRYPHOSTIN-ANALOGS FOR THE TREATMENT OF CELL PROLIFERATIVE DISEASES” (The Board of Regents of the University of Texas System, priority 2006, published 2010).
